According to US5888504A, “Natural composition for combatting fungi” (Van den Bergh Foods Co., Division of Conopco, Inc., priority 1995, dated 1999):
Entries after “also recorded” stand apart in the source; their conditions may differ.

Key:
Assay type in all cases: cell-based
[1] = system: Paecilomyces variotii; assay: Extent of outgrowth of Paecilomyces variotii in malt extract broth in serum bottles; settings: 1 μM carvacrol, absence of enzyme; observed during ten days
Protocol: Solutions (30 ml) were prepared containing […] dissolved in malt extract broth. Novozyme™234 was present in concentrations of 1, 0.1 and 0 mg/ml. For comparison a solution was prepared containing 1 mg/ml of Novozyme™, but without carvacrol and one in which both enzyme and carvacrol were absent. 50 ml serum bottles filled with the solutions were inoculated with 1000 spores of Paecilomyces variotii. The height of the bars of FIG. 5 indicates the extent of outgrowth of the fungi observed during ten days. The highest bars ("100") indicate full outgrowth of the fungi, which occurs in solutions without carvacrol and with 1 mg/ml or less enzyme. Observed growth inhibition is expressed by the "50" bars. The presence of 1 μM carvacrol causes inhibition of growth, even in the absence of enzyme. When 1 mg/ml of enzyme is present together with 1 μM of carvacrol even germination of the fungal spores ("25" bars) does no longer occurs.

[2] = system: Penicillium roqueforti; assay: Outgrowth of Penicillium roqueforti inoculated on processed cheese; settings: nisin 0.05 wt. % or NovoZyme 234 2 wt. % singly
Source text: The surface of processed cheese was inoculated in the centre with Penicillium roqueforti. Admixture of nisin of the lytic enzymes was done in a laminar air flow cabinet. The samples were observed during 16 days (see FIG. 7).
Fungal growth is expressed as the diameter of the colonies. When NovoZyme™ 234 (2 wt. %) was present fungal outgrowth was considerably delayed and became visible only after 12 days.

[3] = system: Aspergillus niger; assay: Outgrowth of Aspergillus niger spores in malt extract broth/agar, microtitre plate, OD 620 nm; settings: no enzyme
Protocol: An aqueous solution (demineralised water) was prepared containing 0.2 wt. % of the antifungal substance NovoZyme™ 234 and 0.002 wt. % of nisin. 75 μl of the solution were warmed to 20° C. and added to the well of a microtitre plate. Then 75 μl of a solution containing 4 wt. % of malt extract broth (ex Oxoid), 0.75 wt. % of agar (ex Difco) and 1000 spores of the fungus Aspergillus niger was heated to 25° C. and added to the test solution in the well (pH 5.1).
The procedure was repeated with solutions containing 0.004, 0.008, 0.016, 0.032 and 0.064 wt. % of nisin. The contents of the wells were thoroughly mixed and 75 μl of paraffin oil was loaded on top of the mixture. Finally, the plates were sealed with an oxygen permeable foil (Merlin).
During 360 hours the OD 620 nm was measured at regular intervals using a Multiscan devise MCC 340. Fungal outgrowth was defined when an OD (optical density) increase of at least 0.1 occurred.
[…] 75 μl of the solution were warmed to 20° C. and added to the well of a microtitre plate. Then 75 μl of a solution containing 4 wt. % malt extract broth (ex Oxoid), 0.75 wt. % agar (ex Difco) and 1000 spores of the fungus Aspergillus niger was heated to 25° C. and added to the test solution in the well (pH 5.1). […] During 360 hours the OD 620 nm was measured at regular intervals using a Multiscan devise MCC 340. […]

[4] = system: Paecilomyces variotii; assay: Outgrowth of Paecilomyces variotii spores, microtitre plate (Example 2 repeated); settings: histatin without enzyme
Protocol: An aqueous solution (demineralised water) was prepared containing 0.2 wt. % of the antifungal substance NovoZyme™ 234 and 0.002 wt. % of histatin. 75 μl of the solution were warmed to 20° C. and added to the well of a microtitre plate. Then 75 μl of a solution containing 4 wt. % malt extract broth (ex Oxoid), 0.75 wt. % agar (ex Difco) and 1000 spores of the fungus Aspergillus niger was heated to 25° C. and added to the test solution in the well (pH 5.1). The procedure was repeated with solutions containing 0.004, 0.008, 0.016, 0.032 and 0.064 wt. % of histatin. The contents of the wells were thoroughly mixed and 75 μl of paraffin oil was loaded on top of the mixture. Finally, the plates were sealed with an oxygen permeable foil (Merlin). During 360 hours the OD 620 nm was measured at regular intervals using a Multiscan devise MCC 340. Fungal outgrowth was defined when an OD increase of at least 0.1 occurred.
Example 2 is repeated with the fungus Paecilomyces variotii.

Cc1ccc(C(C)C)cc1O [carvacrol]
extent of outgrowth (height of bar) [1]: 50

nisin
time after which fungal outgrowth showed [2]: 4 days
effect on postponing the onset of fungal growth (time needed for outgrowth) ([3]; nisin 0 to 0.032 wt. %, pH 5.1, followed 360 hours): no fungal growth inhibition has been observed; also recorded: no substantial effect

histatin
concentration at which fungal growth inhibition is shown [4]: ≥ 0.004 wt. %
retarding fungal growth (time needed for outgrowth) ([3]; histatin 0 to 0.032 wt. %, particularly at 0.008 wt. % and higher): slightly active in retarding fungal growth
